How the values were obtained:
UWB 1.289 = experiment: MTT in vitro antiproliferative assay, UWB 1.289; assay type: cell-based, human; settings: UWB 1.289, MTT; for IC50 / GI50: Homo sapiens, UWB1289; for IC50: 48 h, 50% cell death; for GI50 / TGI: 48 h drug exposure
From the text: (§1) The in vitro antiproliferative activities of the novel triazolo[3,4-b]thiadiazole derivatives were estimated in ten well-established human cancer cell lines including three ovarian (SKOV-3, UWB 1.289, and UWB 1.289+BRCA1), five colorectal adenocarcinoma (DLD-1, HT-29, LS174T, LoVo, and SW403), and two prostate cancer cell lines (PC-3 and DU-145). All cancer cell lines were obtained from the American Type Culture Collection (ATCC) and cultivated in different culture media according to the instructions. The required growth mediums were supplemented with 10% fetal bovine serum and 1% streptomycin/penicillin. All cancer cell lines were cultured as monolayers and maintained at 37 °C, 5% CO2 in humidified air.
(§2) Stock solutions of all tested compounds were prepared by dissolving the required amount of substances in the DMSO solvent to reach the desired concentration of 15 mM.
(§3) To evaluate the in vitro antiproliferative activity of the triazolo[3,4-b]thiadiazole derivatives, 3-(4,5-dimethylthiazol-2-yl)-2,5-diphenyltetrazolium bromide (MTT) assay was assessed. According to the protocol, cells were firstly seeded into a 96-well plate at a density of 8 × 10^3 cells and grown for 24 h at 37 °C, 5% CO2 in humidified air. Subsequently, cells were treated with the tested compounds in a specific range of drug concentrations (1–100 μΜ). Following 48 h of drug exposure, the culture media were discarded and replaced with 100 μL of fresh medium. Afterwards, 50 μL of dissolved MTT in phosphate-buffered saline (PBS) solution (5 mg/mL) were added in each well and cells were incubated for 3 h at 37 °C, 5% CO2 in humidified air. Incubation time was followed by MTT discard and the addition of 100 μL of DMSO solvent so that the formazan crystals could be dissolved. The absorbance of the converted dye was immediately measured at a wavelength of 540 nm on an ELISA reader (VersaMax Microplate Reader, Orleans, CA, USA).
(§4) The in vitro anticancer effect of a tested compound on cell viability was determined by three dose–response parameters termed GI50, TGI, and IC50. More specifically, the GI50 value indicates the required concentration of the compound that impels 50% cell growth inhibition, the TGI value corresponds to the concentration that induces 100% cell growth inhibition, and the IC50 value is the concentration that causes 50% cell death. The two parameters GI50 and TGI represent the cytostatic activity, whereas IC50 reflects the cytotoxic effect of a drug. To estimate the three parameters, nine absorbance measurements were required including control 24 h (Ct24), control 72 h (Ct72), and the mean of cell survival in all seven drug concentrations (Tt72). The percentage growth inhibition was calculated according to National Cancer Institute’s (NCI) protocol: [(Tt72x) − (Ct24)/(Ct72) − (Ct24)] × 100 for concentrations for which Tt72x > Ct24 and [(Tt72x) − (Ct24)/Ct24] × 100 for concentrations for which Tt72x < Ct24. GI50 was calculated from [(Tt72x) − (Ct24)/(Ct72) − (Ct24)] × 100 = 50, TGI was calculated from [(Tt72x) − (Ct24)/(Ct72) − (Ct24)] × 100 = 0, and IC50 was calculated from [(Tt72x) − (Ct24)/Ct24] × 100 = 50. All the experiments were carried out in triplicate.

LoVo = experiment: MTT in vitro antiproliferative assay, LoVo; assay type: cell-based, human; settings: for TGI / GI50: 48 h drug exposure; for IC50 / GI50: Homo sapiens; for IC50: 48 h, 50% cell death
From the text: as §1, §2, §3, §4

UWB1.289+BRCA1 = experiment: MTT in vitro antiproliferative assay, UWB1.289+BRCA1; assay type: cell-based, human; settings: UWB1.289+BRCA1, MTT; for IC50 / GI50: Homo sapiens; for IC50: 48 h, 50% cell death; for GI50 / TGI: 48 h drug exposure
From the text: as §1, §2, §3, §4

SKOV-3 = experiment: MTT in vitro antiproliferative assay, SKOV-3; assay type: cell-based; settings: Homo sapiens, SK-OV-3, SKOV-3, MTT; for IC50: 48 h, concentration causing 50% cell death, read-out: IC50; for GI50 / IC (TGI): 48 h drug exposure; for GI50: read-out: GI50; for IC (TGI): read-out: TGI
From the text: as §1, §2, §3, §4

HT-29 = tested on: HT-29; parameters: method as in PMID 32801761; settings: HT-29 cells, concentration used for Akt phosphorylation study, determined in previous studies ref 23; cited from earlier work
In vivo acute toxicity = settings: both sexes, mouse, in vivo, ip; CB17 SCID mice, single i.p. injection, 30 days observation, estimated graphically
Procedure: (§5) CB17 severe combined immunodeficient (SCID) male and female mice were used for toxicity and antitumor activity studies. Mice were obtained from National Center for Scientific Research (NCSR) Demokritos, Institute of Biology, Athens, Greece. CB17 SCID mice were fed water and an irradiated standard rodent diet ad libitum and housed under specific pathogen-free conditions. For ethical reasons, the weight and tumor volumes of the animals were measured twice a week during the experiment. In case of cachexia, suffering, or increase in the tumor volume up to 2000 mm^3, the animals were sacrificed by cervical disruption.
(§6) For intraperitoneal (i.p.) treatment, stock solutions of the 3 tested compounds were prepared immediately before use. They were suspended in corn oil in the desired concentrations following initial dissolution in 10% dimethyl sulfoxide (DMSO). […] Briefly, the acute toxicity of the tested compounds was assessed for lethality in CB17 SCID mice and determined as previously described. […] Each dosage comprised a group of ten mice, including males and females, that received single i.p. injections.

CB17 SCID mice = experiment: In vivo acute toxicity; settings: single i.p. injection, 30 days observation, estimated graphically
Procedure: as §5, §6

Row | Compound | IC50 (UWB 1.289) | GI50 (UWB 1.289) | TGI (UWB 1.289) | TGI (LoVo) | IC50 (LoVo) | GI50 (LoVo) | IC50 (UWB1.289+BRCA1) | GI50 (UWB1.289+BRCA1) | TGI (UWB1.289+BRCA1) | IC50 (SKOV-3) | GI50 (SKOV-3) | IC (TGI) (SKOV-3) | TGI concentration (HT-29) | LD50 at 30 days (In vivo acute toxicity) | LD10 (CB17 SCID mice)
1 | COc1cc(Cc2nnc3sc(C=Cc4ccc(F)cc4)nn23)c(S(=O)(=O)N(C)C)cc1OC [KA25] | 62 ± 1.2 µM | 2 ± 0.5 µM | 5 ± 0.7 μΜ | 13.8 ± 0.52 μΜ | > 100 µM | 8 ± 0.76 µM | 38 ± 1.1 µM | 4 ± 0.5 µM | 13 ± 0.8 μΜ | 85 ± 2.1 µM | 15 ± 0.5 µM | 50 ± 1.5 µM | 120 μΜ | 360 mg/kg | 200 mg/kg
2 | COc1cc(Cc2nnc3sc(C=Cc4ccc(Cl)cc4)nn23)c(S(=O)(=O)N(C)C)cc1OC [KA26] | 70 ± 1.4 µM | 29 ± 0.7 µM | 53 ± 1 μΜ | >100 μΜ | > 100 µM | 15 ± 0.8 µM | > 100 µM | 42 ± 0.5 µM | 65 ± 0.7 μΜ | > 100 µM | 20 ± 0.5 µM | > 100 µM | – | 160 mg/kg | 100 mg/kg
3 | COc1cc(Cc2nnc3sc(-c4cc([N+](=O)[O-])ccc4[N+](=O)[O-])nn23)c(S(=O)(=O)N(C)C)cc1OC [KA39] | 22 ± 1.2 µM | 6 ± 0.2 µM | 10 ± 0.8 μΜ | 5.5 ± 0.1 μΜ | 10.5 ± 0.15 µM | 2.2 ± 0.2 µM | 94 ± 2.3 µM | 6 ± 0.5 µM | 11 ± 0.7 μΜ | 25 ± 1.4 µM | 7 ± 0.2 µM | 12 ± 0.8 µM | 15.9 μΜ | 100 mg/kg | 70 mg/kg
